Test results from paper PMC4402683, “FIBT versus florbetaben and PiB: a preclinical comparison study with amyloid-PET in transgenic mice” (EJNMMI Research, 2015).

Columns and labels:
Aβ plaques = experiment: Small animal PET imaging in APP/PS1 tg and control mice (cortex + hippocampus-to-cerebellum PET ratio); assay type: in vivo, mouse; settings: for SUVRtg/SUVRctl (tg/ctl): ratio of APP/PS1 tg to control mice SUVR; for Mean PET ratio (SUVR ± SD), cortex + hippocampus to cerebellum: 36 to 45 min
Experimental: Inhalation anesthesia with isoflurane was used and the eyes of the animals were protected with dexpanthenol eye ointment. Anesthesia was initiated 15 min ahead of experiments by placing the animal in a cage ventilated with oxygen (3.5 L/min) containing 3% isoflurane. Throughout the experiments, anesthesia was maintained by adjusting the isoflurane content (0.6% to 2%) to ensure a respiratory rate in the range 80 to 100/min. For i.v. injection, we inserted a tailored catheter into the lateral tail vein. Simultaneously with a slow bolus injection of 50 to 200 μL of tracer solution, we started the PET with scan duration of 45 min in 3D list mode on a Siemens Inveon system (axial field-of-view of 12.7 cm with a bore diameter of 12 cm, approximately 1.4 mm full-width-at-half-maximum spatial resolution; Siemens Healthcare, Erlangen, Germany). After tracer injection, we flushed the catheter with 50 to 100 μL of isotonic sodium chloride solution. During the scan, a heating pad prevented hypothermia. The radioactivity in the syringe was measured immediately before and after injection with a Capintec CRC® 15R (Capintec Inc, 6 Arrow Road Ramsey, NJ, USA) dose calibrator.
Based on our experience, variance of macroscopic brain anatomy is very low across mice with the same genetic background. Therefore, the creation of a MRI template was done by manual co-registration of all MR images based on prominent brain structures and the overall cortical contour and calculation of a mean image (Pmod 3.3, Pmod Technologies, Zurich, Switzerland). Structures outside of the brain were not considered in the manual co-registration process. Two major volume-of-interests (VOIs) were defined on the MRI template, one comprising the full cortex including hippocampus, the other comprising the full cerebellum. The same VOIs were then used for reading out co-registered PET data of a mean image of the final 10 min of the scan (minute 36 to 45). The VOIs were chosen based on previous findings in a voxel-based analysis of cerebral PiB uptake and its correlation with the underlying Aβ pathology in this mouse model. PET data was normalized and corrected for decay and dead time. The images were reconstructed by means of filtered back-projection (FBP), using a ramp filter with a cutoff at the Nyquist frequency into 45 frames (45 × 60 s). The image volume consisted of 128 × 128 × 159 voxels, each of a size of 0.78 × 0.78 × 0.80 mm. The PET images were manually co-registered with the MRI template. This was done by using the wash-in phase of the tracer to identify the brain contour for alignment with the MRI template. We scaled the PET images to percentage of injected dose per cubic centimeter. We then applied these VOIs to the co-registered PET images and exported the VOI values to Microsoft Excel 2010 in order to calculate cortex + hippocampus-to-cerebellum ratios (further referred to as PET ratios).
We tested the tg/ctl ratios for significance. First, we performed a one-way ANOVA between the three groups showing significance.

Aβ aggregates [1] = settings: post mortem AD brain homogenates; cited from earlier work
[2] = Lipophilicity (log Doct/PBS) by partition between 1-octanol and PBS; assay type: physicochemical; settings: 1-octanol/PBS pH 7.4, mean ± SD, N = 6
Experimental: Lipophilicity of the employed compounds was determined by a conventional partition method between 1-octanol and phosphate buffered saline (PBS), pH 7.4. The 1-octanol was saturated with PBS before use. Briefly, the no-carrier-added tracers, contained in 0.2 mL PBS, were added 0.2 mL of 1-octanol in a 1.5-mL polypropylene Eppendorf vial. The vial was sealed and vigorously shaken at room temperature for 5 min. The mixture was then centrifuged at 3,000 g for 10 min. A 100 μL aliquot from each of the two phases was drawn and their radioactivity content was determined in a NaI (Tl) well-type detector. The log Doct/PBS was calculated as follows: log Doct/PBS = log (radioactivity concentration in the 1-octanol phase/radioactivity concentration in the PBS phase). The reported values represent the mean of six independent measurements.

Aβ aggregates [3] = biological target: Aβ aggregates; design: method as in PMID 24900362; settings: versus [^3H]PiB; cited from earlier work
Aβ deposits = experiment: Ex vivo autoradiography, cortex/cerebellum uptake ratio; assay type: in vivo, mouse; settings: n ≥ 3
Experimental: In the present study, ex vivo autoradiography of [^18F]FIBT and [^18F]Florbetaben (Figure SI-1) were performed following a published procedure (Manook et al., 2012).
Figure SI-1. [^18F]FIBT and [^18F]Florbetaben autoradiography and cortex/ cerebellum uptake ratio (n≥ 3). Images of digital ex vivo autoradiography of a 12 µm thick axial section of age- and gender matched control (A and C) and APP/PS1 tg mouse brain (B and D). [^18F]FIBT (A and B), and [^18F]Florbetaben (C and D).

[4] = Ex vivo brain uptake studies in BALB/c mice; design: species or system mouse; settings: BALB/c mice without Aβ pathology, compared to [^18F]FIBT
Experimental: Ex vivo brain uptake studies were performed in male BALB/c mice (mean ± SD body weight: 23 ± 2 g). […] Groups of mice were killed at 5 and 30 min p.i. Radioactivity of weighted brain samples was measured in a γ-counter (Wallac 1480-011 Automatic Gamma Counter, PerkinElmer, Waltham, MA, USA). Data are expressed as percent of the injected dose per gram tissue (% I.D./g; mean ± SD, N = 5).

[5] = APP/PS1 tg mice (N = 4), 24-month-old

Structure (SMILES) | SUVRtg/SUVRctl (tg/ctl) (Aβ plaques) | Mean PET ratio (SUVR ± SD), cortex + hippocampus to cerebellum (Aβ plaques; [5]) | Mean PET ratio (SUVR ± SD), cortex + hippocampus to cerebellum (Aβ plaques; C57BL6/J control mice (N = 3)) | Kd (Aβ aggregates [1]) | Log D oct/PBS [2] | Ki (Aβ aggregates [3]) | Ctx/Clb ratio (Aβ deposits; APP/PS1 tg mouse brain) | Ctx/Clb ratio (Aβ deposits; Ctl mouse brain) | logD at 5 min ([2]; read-out: Log D oct/PBS) | Initial brain uptake ([4]; 5 min p.i.) | Brain tracer retention ([4]; 30 min p.i.)
CNc1ccc(-c2nc3ccc(O)cc3s2)cc1 [[^11C]PiB, Pittsburgh compound B] | 2.11 ± 0.24 |  |  |  |  |  |  |  |  |  | 
CNc1ccc(-c2cn3c(n2)sc2cc(OCC[18F])ccc23)cc1 [[^18F]FIBT, 2-(p-methylaminophenyl)-7-(2-[^18F]fluoroethoxy)imidazo[2,1-b]benzothiazole] | 1.78 ± 0.16 | 1.68 ± 0.15 | 0.95 ± 0.02 | 0.7 ± 0.2 nM | 1.92 ± 0.06 | 2.1 ± 0.8 nM | 4.7 ± 0.3 | 1.1 ± 0.1 |  |  | 
CNc1ccc(/C=C/c2ccc(OCCOCCOCCF)cc2)cc1 [[^18F]florbetaben, florbetaben] | 1.50 ± 0.06 | 1.35 ± 0.06 | 0.90 ± 0.01 | 6.7 ± 0.3 nM |  |  | 2.0 ± 0.3 | 1.3 ± 0.1 | 1.58 ± 0.13 | lower initial uptake | higher tracer retention
